Results from PubChem BioAssay AID248 (DTP/NCI, 2004).
Several values for one entry are separate records, joined by “and”; a condition that tells them apart may be missing. Equal entries are not always repeated. Inconclusive results and toxic doses are left out. Cut-off read from the data, not from the text of the source: active = T/C of 150% or more; inactive = T/C below 125%.

Test system: L1210 leukemia ip in BDF1 mice, survival T/C
Assay: NCI In Vivo Anticancer Drug Screen. Data for tumor model L1210 Leukemia (intraperitoneal) in B6D2F1 (BDF1) mice
Details: endpoint: mean survival time, higher = longer survival
Method in brief: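 Ratio derived from survival: compound-dosed mice over vehicle-dosed mice, all bearing a transplantable tumor.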

[1] = dose: 100.0 mg/kg/injection, schedule: Q01DX009 (ip), vehicle: Klucel (hydroxypropylcellulose) (HPC)
[2] = dose: 200.0 mg/kg/injection, schedule: Q01DX009 (ip), vehicle: Klucel (hydroxypropylcellulose) (HPC)
[3] = dose: 400.0 mg/kg/injection, schedule: Q01DX009 (ip), vehicle: Klucel (hydroxypropylcellulose) (HPC)
[4] = dose: 100.0 mg/kg/injection, schedule: Q04DX002 (ip), vehicle: saline with Tween-80
[5] = dose: 200.0 mg/kg/injection, schedule: Q04DX002 (ip), vehicle: saline with Tween-80
[6] = dose: 400.0 mg/kg/injection, schedule: Q04DX002 (ip), vehicle: saline with Tween-80
[7] = dose: 100.0 mg/kg/injection, schedule: Q01DX009 (ip), vehicle: saline with Tween-80
[8] = dose: 200.0 mg/kg/injection, schedule: Q01DX009 (ip), vehicle: saline with Tween-80
[9] = dose: 400.0 mg/kg/injection, schedule: Q01DX009 (ip), vehicle: saline with Tween-80
[10] = dose: 100.0 mg/kg/injection, schedule: Q01DX001 (ip), vehicle: carboxymethylcellulose (CMC)
[11] = dose: 200.0 mg/kg/injection, schedule: Q01DX001 (ip), vehicle: carboxymethylcellulose (CMC)
[12] = dose: 400.0 mg/kg/injection, schedule: Q01DX001 (ip), vehicle: carboxymethylcellulose (CMC)
[13] = dose: 50.0 mg/kg/injection, schedule: Q01DX009 (ip), vehicle: saline with Tween-80
[14] = dose: 100.0 mg/kg/injection, schedule: Q04DX003 (ip), vehicle: saline
[15] = dose: 100.0 mg/kg/injection, schedule: Q01DX001 (ip), vehicle: other
[16] = dose: 100.0 mg/kg/injection, schedule: Q04DX003 (ip), vehicle: saline with Tween-80
[17] = dose: 200.0 mg/kg/injection, schedule: Q01DX001 (ip), vehicle: other
[18] = dose: 200.0 mg/kg/injection, schedule: Q04DX003 (ip), vehicle: saline with Tween-80
[19] = dose: 400.0 mg/kg/injection, schedule: Q01DX001 (ip), vehicle: other
[20] = dose: 100.0 mg/kg/injection, schedule: Q04DX003 (ip), vehicle: other
[21] = dose: 200.0 mg/kg/injection, schedule: Q04DX003 (ip), vehicle: other
[22] = dose: 400.0 mg/kg/injection, schedule: Q04DX003 (ip), vehicle: other
[23] = dose: 100.0 mg/kg/injection, schedule: Q01DX001 (ip), vehicle: saline
[24] = dose: 200.0 mg/kg/injection, schedule: Q01DX001 (ip), vehicle: saline
[25] = dose: 400.0 mg/kg/injection, schedule: Q01DX001 (ip), vehicle: saline
[26] = dose: 50.0 mg/kg/injection, schedule: Q01DX001 (ip), vehicle: carboxymethylcellulose (CMC)
[27] = dose: 100.0 mg/kg/injection, schedule: Q04DX003 (ip), vehicle: Klucel (hydroxypropylcellulose) (HPC)
[28] = dose: 200.0 mg/kg/injection, schedule: Q04DX003 (ip), vehicle: Klucel (hydroxypropylcellulose) (HPC)
[29] = dose: 400.0 mg/kg/injection, schedule: Q04DX003 (ip), vehicle: Klucel (hydroxypropylcellulose) (HPC)
[30] = dose: 100.0 mg/kg/injection, schedule: Q01DX001 (ip), vehicle: saline with Tween-80
[31] = dose: 200.0 mg/kg/injection, schedule: Q01DX001 (ip), vehicle: saline with Tween-80
[32] = dose: 400.0 mg/kg/injection, schedule: Q01DX001 (ip), vehicle: saline with Tween-80

Measured: T/C

COc1ccc2c(c1)CCC1C2CCC2(C)C(=O)C(SC3=NC=NC4=NC=NC43)CC12 (stereo not given)
inactive: dose: 100.0 mg/kg/injection, schedule: Q01DX001 (sc), vehicle: steriod suspending solution 97 % of control | dose: 200.0 mg/kg/injection, schedule: Q01DX001 (sc), vehicle: steriod suspending solution 96 % of control | dose: 400.0 mg/kg/injection, schedule: Q01DX001 (sc), vehicle: steriod suspending solution 111 % of control

CCc1ccccc1NC(=O)Nc1cc(C)ccn1
inactive: [1] 102 % of control | dose: 100.0 mg/kg/injection, schedule: Q04DX002 (ip), vehicle: Klucel (hydroxypropylcellulose) (HPC) 102 % of control | [2] 107 % of control | dose: 200.0 mg/kg/injection, schedule: Q04DX002 (ip), vehicle: Klucel (hydroxypropylcellulose) (HPC) 102 % of control | [3] 102 % of control | dose: 400.0 mg/kg/injection, schedule: Q04DX002 (ip), vehicle: Klucel (hydroxypropylcellulose) (HPC) 106 % of control

C#CC1(NC(=O)NC(C)(C)C)CCCCC1
inactive: [4] 97 % of control | [5] 97 % of control | [6] 97 % of control

C/C=C/C(=O)Nc1cccc(O)c1
inactive: [7] 93 % of control | [8] 91 % of control | [9] 93 % of control

CCCCC(=O)c1ccc(OC)c(C)c1
inactive: [10] 101 % of control | [11] 97 % of control | [12] 103 % of control

Cc1nc2c(NC(=O)CCl)nn(C)c2nc1C
inactive: [13] 98 % of control | [7] 98 % of control

CCOC(=O)CCN1CCCCCC1
inactive: dose: 100.0 mg/kg/injection, schedule: Q01DX009 (ip), vehicle: saline 104 % of control | [14] 92 % of control | dose: 200.0 mg/kg/injection, schedule: Q01DX009 (ip), vehicle: saline 104 % of control | dose: 200.0 mg/kg/injection, schedule: Q04DX003 (ip), vehicle: saline 98 % of control | dose: 400.0 mg/kg/injection, schedule: Q01DX009 (ip), vehicle: saline 101 % of control | dose: 400.0 mg/kg/injection, schedule: Q04DX003 (ip), vehicle: saline 102 % of control

OC1(Cc2ccccc2)CCCCC1
inactive: [15] 102 % of control | [16] 102 % of control | [17] 110 % of control | [18] 104 % of control | [19] 118 % of control | dose: 400.0 mg/kg/injection, schedule: Q04DX003 (ip), vehicle: saline with Tween-80 102 % of control

O=C(/C=C/c1ccccc1Cl)NCC(O)CO (stereo not given)
inactive: [20] 108 % of control | [21] 109 % of control | [22] 109 % of control

C/C=C(\Br)C(=O)N1CCCCC1
inactive: [23] 94 % of control | [24] 100 % of control | [25] 95 % of control

Cc1ccc2c(c1)C(c1ccccc1)(c1ccccc1)OC2=O
inactive: [7] 98 % of control | [8] 98 % of control | [9] 103 % of control

CCOC(=O)c1cnc(N)s1
inactive: dose: 100.0 mg/kg/injection, schedule: Q01DX001 (ip), vehicle: Klucel (hydroxypropylcellulose) (HPC) 105 % of control | dose: 200.0 mg/kg/injection, schedule: Q01DX001 (ip), vehicle: Klucel (hydroxypropylcellulose) (HPC) 98 % of control | dose: 400.0 mg/kg/injection, schedule: Q01DX001 (ip), vehicle: Klucel (hydroxypropylcellulose) (HPC) 102 % of control

Oc1ccc(Cl)cc1/C=N\NC(=S)Nc1ccc2cn[nH]c2c1
inactive: [26] 102 % of control | [10] 86 % of control | [11] 102 % of control

CCCCCCCCCCCCCCCCS(=O)(=O)N/N=C(/c1ccc(N)cc1Cl)N1CCCCC1
inactive: [27] 86 % of control | [28] 94 % of control | [29] 91 % of control

Cc1ccc(S(=O)(=O)OCC2CC3CCC2C3)cc1 (stereo not given)
inactive: [20] 91 % of control | [21] 94 % of control | [22] 98 % of control

O=C(O)c1cccc([N+](=O)[O-])c1O
inactive: dose: 12.5 mg/kg/injection, schedule: Q04DX002 (ip), vehicle: saline with Tween-80 95 % of control | dose: 25.0 mg/kg/injection, schedule: Q04DX002 (ip), vehicle: saline with Tween-80 95 % of control | [26] 97 % of control | dose: 50.0 mg/kg/injection, schedule: Q04DX002 (ip), vehicle: saline with Tween-80 100 % of control | [10] 87 % of control | [1] 103 % of control | [27] 93 % of control | [11] 87 % of control | [2] 95 % of control | [28] 90 % of control | [12] 92 % of control | [3] 93 % of control | [29] 96 % of control

CNC(=O)C(CCC(=O)OC)NS(=O)(=O)c1ccc(C)cc1 (stereo not given)
inactive: [30] 100 % of control | [7] 104 % of control | [31] 100 % of control | [8] 96 % of control | [32] 100 % of control | [9] 104 % of control

CC(=O)CSc1ccc(C(C)(C)C)cc1
inactive: [10] 102 % of control | [11] 96 % of control | [12] 105 % of control

CC1CCC2(O)C(O)CCCC2(C)C1C (stereo not given)
inactive: [13] 92 % of control | [7] 89 % of control | [8] 92 % of control

CN(C)CC/C=C1/c2ccccc2COc2ccccc21
inactive: dose: 6.12 mg/kg/injection, schedule: Q01DX001 (ip), vehicle: water 111 % of control | dose: 6.25 mg/kg/injection, schedule: Q01DX009 (ip), vehicle: saline 103 % of control | dose: 12.5 mg/kg/injection, schedule: Q01DX001 (ip), vehicle: water 113 % of control | dose: 12.5 mg/kg/injection, schedule: Q01DX009 (ip), vehicle: saline 107 % of control | dose: 25.0 mg/kg/injection, schedule: Q01DX001 (ip), vehicle: water 103 % of control | dose: 25.0 mg/kg/injection, schedule: Q01DX009 (ip), vehicle: saline 101 % of control | dose: 25.0 mg/kg/injection, schedule: Q04DX003 (ip), vehicle: saline 109 % of control | dose: 50.0 mg/kg/injection, schedule: Q01DX009 (ip), vehicle: saline 113 % of control | dose: 50.0 mg/kg/injection, schedule: Q04DX003 (ip), vehicle: saline 101 % of control | [14] 93 % of control

CSc1ccc(NC(=S)NC(=O)c2ccc(Cl)cc2Cl)cc1
inactive: [7] 93 % of control and 89 % of control | [4] 90 % of control and 92 % of control | [8] 96 % of control and 88 % of control | [5] 93 % of control and 100 % of control | [9] 96 % of control and 100 % of control | [6] 107 % of control and 90 % of control

Cc1cc(=O)[nH]c(O)c1C#N
inactive: [7] 98 % of control | [8] 108 % of control | [9] 98 % of control

CCC(N)CO (stereo not given)
inactive: [23] 97 % of control | [24] 106 % of control

CC1(C)C2CCC(CC(=O)O)C1C2 (stereo not given)
inactive: [16] 101 % of control | [18] 101 % of control

Cc1ccc(S)cc1.[Pb]
inactive: [26] 98 % of control | [10] 93 % of control | [11] 103 % of control | [12] 93 % of control

Cc1ccc([N+](=O)[O-])c2ccccc12
inactive: [30] 103 % of control | [31] 97 % of control | [32] 97 % of control

NCCP(=O)(O)c1ccccc1
inactive: [23] 94 % of control | [24] 93 % of control | [25] 93 % of control

O=C1CCc2c1cccc2[N+](=O)[O-]
inactive: [4] 102 % of control | [5] 102 % of control | [6] 102 % of control

CC(=O)OC1C2C=CC(C2)C1OC(C)=O (stereo not given)
inactive: [15] 100 % of control | [17] 106 % of control | [19] 112 % of control

CC(C)(CC(=O)O)Cc1ccccc1
inactive: [13] 101 % of control | [7] 93 % of control | [8] 101 % of control
